The values below come from BindingDB's records for doi:10.1016/s0968-0896(99)00306-5 (University of Bologna, 2000).

One experiment deals with Acetylcholinesterase (Homo sapiens, UniProt P22303). The experiment in a line: Cholinesterase Inhibition Assay. The protocol: (§1) The cholinesterase assays were performed using colorimetric method reported by Ellman. The absorbance changes at 412 nm were recorded for 5 min with a Jasco Uvidec-610 double beam Spectrophotometer. The reaction rates were compared and the percent inhibition due to the presence of test compounds was calculated. Inhibition curve was obtained for each compound.
Chain of Acetylcholinesterase (P22303 whole entry): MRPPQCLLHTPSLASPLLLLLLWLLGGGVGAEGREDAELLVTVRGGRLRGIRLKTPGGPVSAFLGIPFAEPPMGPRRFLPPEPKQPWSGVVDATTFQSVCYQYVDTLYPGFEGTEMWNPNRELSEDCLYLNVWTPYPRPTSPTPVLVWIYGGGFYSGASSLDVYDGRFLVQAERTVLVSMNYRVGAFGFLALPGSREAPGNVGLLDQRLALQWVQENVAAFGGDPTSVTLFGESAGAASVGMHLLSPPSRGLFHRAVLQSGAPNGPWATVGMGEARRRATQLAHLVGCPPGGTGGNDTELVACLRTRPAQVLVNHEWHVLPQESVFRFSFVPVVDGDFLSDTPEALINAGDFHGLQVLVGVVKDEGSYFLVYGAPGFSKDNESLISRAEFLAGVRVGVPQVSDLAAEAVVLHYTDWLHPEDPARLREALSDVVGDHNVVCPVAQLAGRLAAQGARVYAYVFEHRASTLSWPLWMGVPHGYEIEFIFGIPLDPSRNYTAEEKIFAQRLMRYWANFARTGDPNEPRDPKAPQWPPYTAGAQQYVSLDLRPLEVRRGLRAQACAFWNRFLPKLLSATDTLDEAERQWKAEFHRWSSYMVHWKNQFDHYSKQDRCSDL

For the next experiment, the target named is Cholinesterase (Homo sapiens, UniProt P06276). The experiment in a line: Cholinesterase Inhibition Assay. Conditions: pH 8; 37 °C. The protocol:
as §1

In general, IC50 refers to the concentration that inhibits the measured activity by half. What is called Ki is the equilibrium dissociation constant of an inhibitor or competing ligand from its target. A higher Ki goes with a looser hold on the target.

Molecules are shown by their SMILES.

Chain of Cholinesterase (P06276 whole entry): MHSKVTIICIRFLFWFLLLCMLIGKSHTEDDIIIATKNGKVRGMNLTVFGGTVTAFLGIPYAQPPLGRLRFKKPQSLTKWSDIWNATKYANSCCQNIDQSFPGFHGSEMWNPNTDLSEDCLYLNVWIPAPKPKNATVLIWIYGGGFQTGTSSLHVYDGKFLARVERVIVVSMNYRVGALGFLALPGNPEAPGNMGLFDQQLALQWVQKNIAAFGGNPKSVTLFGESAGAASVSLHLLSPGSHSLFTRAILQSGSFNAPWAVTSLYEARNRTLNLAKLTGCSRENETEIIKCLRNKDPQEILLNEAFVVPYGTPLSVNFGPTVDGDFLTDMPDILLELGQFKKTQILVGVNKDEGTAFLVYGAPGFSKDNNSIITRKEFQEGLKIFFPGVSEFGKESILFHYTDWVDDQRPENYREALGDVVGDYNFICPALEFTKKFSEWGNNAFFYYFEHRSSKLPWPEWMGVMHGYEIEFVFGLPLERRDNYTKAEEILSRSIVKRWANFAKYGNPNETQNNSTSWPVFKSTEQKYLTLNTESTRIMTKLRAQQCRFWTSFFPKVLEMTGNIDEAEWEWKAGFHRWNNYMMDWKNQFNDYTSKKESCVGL

At Acetylcholinesterase, `Cc1ccc2c(c1)-c1nc3ccccc3c(N)c1C2` [7-methyl-10H-indeno[1,2-b]quinolin-11-amine] had a 50% inhibitory concentration (IC50) of 4.6 µM.

`Nc1c2c(nc3cc([N+](=O)[O-])ccc13)-c1ccccc1C2` [3-nitro-10H-indeno[1,2-b]quinolin-11-amine] registered an IC50 at Acetylcholinesterase of 67.5 µM.

At Acetylcholinesterase, `Nc1c2c(nc3ccccc13)-c1ccccc1C2` yielded an inhibition constant Ki of 0.21 µM. On Cholinesterase, this compound yielded a 50% inhibitory concentration (IC50) of 4.7 µM.

The compound `Nc1c2c(nc3ccccc13)-c1ccc(Cl)cc1C2` [8-chloro-10H-indeno[1,2-b]quinolin-11-amine] yielded an IC50 against Acetylcholinesterase of 5.4 µM.

In turn, `Cc1cccc2c1Cc1c-2nc2ccccc2c1N` [9-methyl-10H-indeno[1,2-b]quinolin-11-amine] registered an IC50 against Acetylcholinesterase of 3.9 µM.

In the case of `Nc1c2c(nc3ccccc13)-c1ccc(F)cc1C2` [8-fluoro-10H-indeno[1,2-b]quinolin-11-amine], the IC50 against Acetylcholinesterase came out at 0.43 µM; at Cholinesterase it was 7.1 µM.

Regarding `Nc1c2c(nc3cc(F)ccc13)-c1ccccc1C2` [3-fluoro-10H-indeno[1,2-b]quinolin-11-amine], the half-maximal inhibitory concentration (IC50) is 1.2 µM on Acetylcholinesterase and 5.7 µM at Cholinesterase.

`COc1ccc2c(c1)-c1nc3ccccc3c(N)c1C2` [7-methoxy-10H-indeno[1,2-b]quinolin-11-amine] gave a half-maximal inhibitory concentration (IC50) against Acetylcholinesterase of 4.3 µM.

`Nc1ccc2nc3c(c(N)c2c1)Cc1ccccc1-3` [11H-Indeno-[1,2-b]-quinolin-8,10-diamine] registered a half-inhibitory concentration (IC50) on Acetylcholinesterase of 5.9 µM.

As for `COc1cccc2c1Cc1c-2nc2ccccc2c1N` [9-methoxy-10H-indeno[1,2-b]quinolin-11-amine], the IC50 is 1.6 µM against Acetylcholinesterase and 3 µM against Cholinesterase.

Turning to `CNc1c2c(nc3ccccc13)-c1ccccc1C2` [N-methyl-10H-indeno[1,2-b]quinolin-11-amine], the IC50 was 1.3 µM against Acetylcholinesterase and 1.6 µM on Cholinesterase.

For `COc1ccc2c(c1)Cc1c-2nc2ccccc2c1N` [8-methoxy-10H-indeno[1,2-b]quinolin-11-amine], at Acetylcholinesterase, the midpoint of inhibition, the IC50, lay at 6.5 µM.

Take `Nc1c2c(nc3ccc([N+](=O)[O-])cc13)-c1ccccc1C2` [2-nitro-10H-indeno[1,2-b]quinolin-11-amine]: the IC50 against Acetylcholinesterase was above 100 µM.

Turning to `c1ccc(CNc2c3c(nc4ccccc24)-c2ccccc2C3)cc1` [N-benzyl-10H-indeno[1,2-b]quinolin-11-amine], on Acetylcholinesterase, the half-maximal inhibitory concentration (IC50) was determined as 7.1 µM and the inhibitory constant (Ki) worked out at 7.5 µM. Further, at Cholinesterase, the IC50 was 0.5 µM.

As for `CCCCCCCNc1c2c(nc3ccccc13)-c1ccccc1C2` [N-Heptyl-N-11H-indeno-[1,2-b]-quinolin-10-yl)-amine], the IC50 at Acetylcholinesterase was 4.3 µM.

The compound `Nc1ccc2c(N)c3c(nc2c1)-c1ccccc1C3` [11H-Indeno-[1,2-b]-quinolin-7,10-diamine] had an IC50 on Acetylcholinesterase of 29 µM.

On Acetylcholinesterase, `Nc1c2c(nc3cc(Cl)ccc13)-c1ccccc1C2` [3-chloro-10H-indeno[1,2-b]quinolin-11-amine] gave a 50% inhibitory concentration (IC50) of 6.5 µM.
